The source of these data is patent publication US10011614B2, “Bis-β-carboline compound and preparation method, pharmaceutical composition and use thereof” (XINJIANG HUASHIDAN PHARMACEUTICAL RESEARCH CO., LTD., priority 2012, dated 2018).

The subject of data set [1] is BGC (human gastric cancer cells). Briefly: Antitumor screening in vitro, MTT assay, BGC. Particulars: Homo sapiens, 48 hours. The data set is classed as cell-based. How it is done:
(§1) Cell lines: BGC (human gastric cancer cells), A375 (human malignant melanoma cells), 769-P (human renal carcinoma cells), KB (human oral epidermoid carcinoma cells), SK-OV-3 (human ovarian cancer cells), etc, were selected, and the test method was the MTT assay. Cisplatin was as a positive control.
(§2) Specific methods are as follows: cells growing well in the logarithmic phase were seeded in 96-well plates at a concentration of 1×10^4 cells/ml, and then were placed in 37° C., containing 5% CO2 incubator for 24 hours. After discarding the old solution, changed fresh medium, and added sterilization treatment compound, and then cultured for 48 hours. After discarding the culture medium, 20 ul RPMI1640 medium containing 5 mg/ml MTT were added to each well in 96-well plates and cells were cultured for 4 hours. After the supernatant was carefully removed, 100 μl DMSO was added to each well, and the plates were Oscillated about 10 min to dissolve the precipitate, followed by detecting OD value in wavelength 490 nm by the microplate reader. Cell survival rate for each sample concentrations was determined by the following formula: The mean survival rate %=the average OD value of sample group/the average OD value of control group×100%
(§3) Morphological studies by mapping with the logarithm of the drug concentration and the mean survival rate % of each sample to obtain IC50 values for each sample.

The test system of data set [2] is A375 (human malignant melanoma cells). In words: Antitumor screening in vitro, MTT assay, A375. The data set is classed as cell-based. Particulars: Homo sapiens, A-375, 48 hours. Here is the method:
as §1, §2, §3
For orientation: Formazan colour is commonly taken as a measure of viable cells.

Data set [3] relates to 769-P (human renal carcinoma cells). Briefly: Antitumor screening in vitro, MTT assay, 769-P. Type of data set: cell-based. The note with it: Homo sapiens, 48 hours, 769-P cells. Here is the method:
as §1, §2, §3

Data set [4] concerns KB (human oral epidermoid carcinoma cells). Briefly: Antitumor screening in vitro, MTT assay, KB. The data set is classed as cell-based. The note with it: Homo sapiens, 48 hours. Here is the method: as §1, §2, §3
Data set [5] concerns SK-OV-3 (human ovarian cancer cells). Briefly: Antitumor screening in vitro, MTT assay, SK-OV-3. The data set is classed as cell-based. Particulars: Homo sapiens, 48 hours, SK-OV-3 cells. Here is the method: as §1, §2, §3
A further data set can be described thus: in vivo. The note with it: both, Kunming, mouse, in vivo, ip. Here is the method: Solvent: 0.9% saline and 0.5% CMC-Na solution. According to pre-test results, design 5 dose gradient for each sample, dose spacing was 0.8 times. […] Experimental volume is 0.5 ml/20 g mouse. A single intraperitoneal administration is used. Kunming mice were taken and grouped randomly by gender, and intraperitoneal administration according to dose designation was set to observe the immediate reaction after administration in mice. Dead animals were dissected to observe, surviving animals continued to observe two weeks, and the animal deaths in two weeks were recorded. After two weeks, surviving animals were dissected, observed substantial organ lesions, and the organs having substantive lesions were further for histological examination. According to the number of deaths in each group of animals, calculating the median lethal dose (LD50 value) by Bliss method, and further, calculating the maximum tolerated dose (MTD) for less toxic compounds.

What is called IC50 is the midpoint of a concentration-inhibition curve. The LD50 is the dose at which mortality reaches 50%. Take `Cc1nccc2c3ccccc3n(CCCCn3c4ccccc4c4ccnc(C)c43)c12` [Compound 7, 1,4-bis(1-methyl-β-carboline-9-yl) butane]: the half-inhibitory concentration (IC50) in data set [1] is 22.3 µM; in data set [2], 13.1 µM; in data set [3], 6.5 µM; in data set [4], 6.4 µM; in data set [5], 4.8 µM. This compound had an LD50 at 2 weeks in the data set “in vivo” of 200 mg/kg.
The melting point is the temperature, or range, at which the solid turns liquid. The compound `Cc1nccc2c3ccccc3n(CCCCCn3c4ccccc4c4ccnc(C)c43)c12` [Compound 8, 1,5-bis(1-methyl-β-carboline-9-yl)pentane] gave a melting point of 213 to 214 °C. Moreover, in data set [1], the IC50 was above 300 µM. This compound displayed an IC50 in data set [2] above 300 µM. Also, in data set [3], the IC50 was above 300 µM. For the same compound, in data set [4], the IC50 was above 300 µM. Moreover, the IC50 in data set [5] came out at 18.8 µM.
For `c1ccc2c(c1)c1ccnc(-c3ccsc3)c1n2CCCCCCCCn1c2ccccc2c2ccnc(-c3ccsc3)c21` [Compound 34, 1,8-bis[1-(3-thienyl)-β-carboline-9-yl) octane], the IC50 in data set [1] is above 300 µM; in data set [2], 32.1 µM; in data set [3] it was above 300 µM; in data set [4], above 300 µM; in data set [5], above 300 µM. This compound displayed an LD50 at 2 weeks in “in vivo” of 250 mg/kg.
Turning to `Cc1nccc2c3ccccc3n(CCCCCCCCn3c4ccccc4c4ccnc(C)c43)c12` [Compound 11, 1,8-bis(1-methyl-β-carboline-9-yl) octane], the IC50 is above 300 µM in data set [1]; above 300 µM in data set [2]; 3.1 µM in data set [3]; above 300 µM in data set [4]; above 300 µM in data set [5]. Further, the 50% lethal dose (LD50) at 2 weeks in the data set “in vivo” is 200 mg/kg.
Take `Cc1nccc2c3ccccc3n(CCCCCCCCCCn3c4ccccc4c4ccnc(C)c43)c12` [Compound 13, 1,10-bis(1-methyl-β-carboline-9-yl) decane]: the melting point fell in the range of 152 to 154 °C. In data set [1], the IC50 was above 300 µM. This compound had an IC50 in data set [2] above 300 µM. The IC50 in data set [3] was 16.2 µM. In addition, the IC50 in data set [4] was above 300 µM. In data set [5], this compound yielded an IC50 of 8.5 µM.
For the compound `COc1ccc2c3ccnc(C)c3n(CCCCCCCn3c4cc(OC)ccc4c4ccnc(C)c43)c2c1` [Compound 17, 1,7-bis(7-methoxy-1-methyl-β-carboline-9-yl) heptane], the 50% inhibitory concentration (IC50) is above 300 µM in data set [1]; 35.3 µM in data set [2]; above 300 µM in data set [3]; 155 µM in data set [4]; 11.7 µM in data set [5]. This compound showed a 50% lethal dose (LD50) at 2 weeks in “in vivo” of 200 mg/kg.
Consider `COc1ccc2c3ccnc(C)c3n(CCCCn3c4cc(OC)ccc4c4ccnc(C)c43)c2c1` [Compound 14, 1,4-bis(7-methoxy-1-methyl-β-carboline-9-yl) butane], for which the 50% inhibitory concentration (IC50) in data set [1] is 75.7 µM; in data set [2], 6.2 µM; in data set [3], 65.6 µM; in data set [4], 2.8 µM; in data set [5], 7.1 µM. Further, the median lethal dose (LD50) at 2 weeks in “in vivo” amounted to 50 mg/kg.
Regarding `c1ccc2c(c1)c1ccncc1n2CCCCCCCCn1c2ccccc2c2ccncc21` [Compound 5, 1,8-bis(β-carboline-9-yl) octane], the melting point was 180 to 181 °C. In data set [1], this compound showed a half-maximal inhibitory concentration (IC50) above 300 µM. In data set [2], the IC50 was determined as 285 µM. This compound came in with an IC50 in data set [3] above 300 µM. Moreover, in data set [4], the IC50 is above 300 µM. The IC50 in data set [5] amounted to 33.5 µM.
As for `c1ccc2c(c1)c1ccncc1n2CCCCn1c2ccccc2c2ccncc21` [Compound 1, 1,4-bis(β-carboline-9-yl) butane], the IC50 is 59.7 µM in data set [1]; above 300 µM in data set [2]; 199 µM in data set [3]; above 300 µM in data set [4]; above 300 µM in data set [5]. In addition, the LD50 at 2 weeks in the data set “in vivo” is 200 mg/kg.
`Cc1nccc2c3ccccc3n(CCCn3c4ccccc4c4ccnc(C)c43)c12` [Compound 6, 1,3-bis (1-methyl-β-carboline-9-yl) propane] yielded a melting point of 239 to 240 °C. The same compound came in with an IC50 in data set [1] of 252 µM. For the same compound, in data set [2], the IC50 is 69.5 µM. Also, in data set [3], the IC50 was 145 µM. Also, the concentration for half-maximal inhibition (IC50) in data set [4] was determined as 160 µM. Further, 26.4 µM corresponded to half-maximal inhibition in data set [5] (IC50).
Take `Cc1nccc2c3ccc(OC(C)C)cc3n(CCCCCCCCCn3c4cc(OC(C)C)ccc4c4ccnc(C)c43)c12` [Compound 26, 1,9-bis(7-isopropoxy-1-methyl-β-carboline-9-yl) nonane]: the concentration for half-maximal inhibition (IC50) in data set [1] is above 300 µM; in data set [2], 43.3 µM; in data set [3], 40 µM; in data set [4], 112 µM; in data set [5], 101 µM. The LD50 at 2 weeks in the data set “in vivo” came to 200 mg/kg.
`Cc1nccc2c3cc(Br)ccc3n(CCCCC(C)n3c4ccc(Br)cc4c4ccnc(C)c43)c12` (stereo not drawn) [Compound 21, 1,5-bis(6-bromo-1-methyl-β-carboline-9-yl) hexane] registered a melting point of 208 to 209 °C. This compound came in with a 50% inhibitory concentration (IC50) in data set [1] above 300 µM. The IC50 in data set [2] was above 300 µM. Moreover, the midpoint of inhibition in data set [3], the IC50, lay at 4.3 µM. For the same compound, the IC50 in data set [4] was above 300 µM. Besides, the IC50 in data set [5] is above 300 µM.
In turn, `CCCCOc1ccc2c3ccnc(C)c3n(CCCCn3c4cc(OCCCC)ccc4c4ccnc(C)c43)c2c1` [Compound 23, 1,4-bis(7-n-butoxy-1-methyl-β-carboline-9-yl) butane] returned a melting point of 193 to 194 °C. Further, the IC50 in data set [1] came to 8.5 µM. In data set [2], this compound registered an IC50 of 3.8 µM. For the same compound, the IC50 in data set [3] was above 300 µM. This compound also gave an IC50 in data set [4] of 6.8 µM. This compound also yielded an IC50 in data set [5] of 5.5 µM.
`Cc1nccc2c3cc(Br)ccc3n(CCCCCCn3c4ccc(Br)cc4c4ccnc(C)c43)c12` [Compound 22, 1,6-bis(6-bromo-1-methyl-β-carboline-9-yl) hexane]: the IC50 in data set [1] is above 300 µM; in data set [2], above 300 µM; in data set [3], above 300 µM; in data set [4] it was above 300 µM; in data set [5], 63.4 µM. Also, the LD50 at 2 weeks in “in vivo” amounted to 200 mg/kg.
Consider `Cc1nccc2c3ccccc3n(CCCCCCn3c4ccccc4c4ccnc(C)c43)c12` [Compound 9, 1,6-bis(1-methyl-β-carboline-9-yl) hexane], for which the IC50 in data set [1] is above 300 µM; in data set [2], above 300 µM; in data set [3], 51.7 µM; in data set [4] it was above 300 µM; in data set [5] it was 96.8 µM. The compound further returned an LD50 at 2 weeks in “in vivo” of 200 mg/kg.
For the compound `c1ccc2c(c1)c1ccnc(-c3ccsc3)c1n2CCCCCCn1c2ccccc2c2ccnc(-c3ccsc3)c21` [Compound 33, 1,6-bis[1-(3-thienyl)-β-carboline-9-yl) hexane], the melting point was 198 to 199 °C. The IC50 in data set [1] was above 300 µM. In data set [2], this compound gave an IC50 above 300 µM. In addition, the IC50 in data set [3] was above 300 µM. This compound also registered an IC50 in data set [4] above 300 µM. Further, the IC50 in data set [5] stood at 67.6 µM.
For the compound `COc1ccc2c3ccnc(C)c3n(CCCCCn3c4cc(OC)ccc4c4ccnc(C)c43)c2c1` [Compound 15, 1,5-bis(7-methoxy-1-methyl-β-carboline-9-yl)pentane], the melting point lay within 180 to 181 °C. Half-maximal inhibition in data set [1] (IC50) required 58.6 µM. Also, the IC50 in data set [2] was below 1.38 µM. Also, half-maximal inhibition in data set [3] (IC50) was put at 81 µM. Further, the concentration for half-maximal inhibition (IC50) in data set [4] came to 5 µM. The same compound returned an IC50 in data set [5] of 1.7 µM.
